Experimental data published in ChEMBL document CHEMBL4673219, “Novel 5,6-disubstituted pyrrolo[2,3-d]pyrimidine derivatives as broad spectrum antiproliferative agents: Synthesis, cell based assays, kinase profile and molecular docking study” (Bioorg Med Chem, 2018).
Values joined by “and” are separate entries in the source; they are usually repeats but may differ in a detail not shown here. Identical values can stand only once.

Experiments:
Format in all cases: functional
LOX IMVI = test: Growth inhibition of human LOX IMVI cells assessed as growth percentage at 10 uM incubated for 48 hrs by sulforhodamine B assay relative to control; conditions: read-out: Activity
HCT-116 [1] = test: Growth inhibition of human HCT-116 cells assessed as growth percentage at 10 uM incubated for 48 hrs by sulforhodamine B assay relative to control; conditions: read-out: Activity
SR = test: Growth inhibition of human SR cells assessed as growth percentage at 10 uM incubated for 48 hrs by sulforhodamine B assay relative to control; conditions: read-out: Activity
Hs-578T = test: Growth inhibition of human Hs-578T cells incubated for 48 hrs by sulforhodamine B assay
UO-31 [2] = test: Growth inhibition of human UO-31 cells incubated for 48 hrs by sulforhodamine B assay
OVCAR-3 [3] = test: Growth inhibition of human OVCAR-3 cells incubated for 48 hrs by sulforhodamine B assay; conditions: for TGI: OVCAR-3; for CC50: OVCAR-3, read-out: LC50 (the source's name)
U-251 [4] = test: Growth inhibition of human U-251 cells incubated for 48 hrs by sulforhodamine B assay; conditions: for CC50: read-out: LC50 (the source's name)
HCC 2998 = test: Growth inhibition of human HCC 2998 cells incubated for 48 hrs by sulforhodamine B assay
NCI-H460 [5] = test: Growth inhibition of human NCI-H460 cells incubated for 48 hrs by sulforhodamine B assay
A549 = test: Growth inhibition of human A549/ATCC cells incubated for 48 hrs by sulforhodamine B assay
HCT-116 [6] = test: Antiproliferative activity against human HCT-116 cells assessed as cell growth inhibition at 10 uM measured after 72 hrs by MTT assay relative to control; conditions: read-out: GI
MCF7 = test: Antiproliferative activity against human MCF7 cells assessed as cell growth inhibition measured after 72 hrs by MTT assay
MDA-MB-468 = test: Growth inhibition of human MDA-MB-468 cells assessed as growth percent at 0.1 uM incubated for 48 hrs by sulforhodamine B assay relative to control; conditions: read-out: Activity
T47D = test: Growth inhibition of human T47D cells assessed as growth percentage at 100 uM incubated for 48 hrs by sulforhodamine B assay relative to control; conditions: read-out: Activity
TK-10 = test: Growth inhibition of human TK-10 cells assessed as growth percentage at 100 uM incubated for 48 hrs by sulforhodamine B assay relative to control; conditions: read-out: Activity
786-0 [7] = test: Growth inhibition of human 786-0 cells assessed as growth percentage at 100 uM incubated for 48 hrs by sulforhodamine B assay relative to control; conditions: read-out: Activity
IGROV-1 = test: Growth inhibition of human IGROV-1 assessed as growth percent at 100 uM incubated for 48 hrs by sulforhodamine B assay relative to control; conditions: read-out: Activity
NCI-H23 = test: Growth inhibition of human NCI-H23 cells assessed as growth percentage at 100 uM incubated for 48 hrs by sulforhodamine B assay relative to control; conditions: read-out: Activity
RPMI-8226 = test: Growth inhibition of human RPMI-8226 cells assessed as growth percentage at 100 uM incubated for 48 hrs by sulforhodamine B assay relative to control; conditions: read-out: Activity
MOLT-4 = test: Growth inhibition of human MOLT-4 cells assessed as growth percentage at 100 uM incubated for 48 hrs by sulforhodamine B assay relative to control; conditions: read-out: Activity
PC-3 = test: Growth inhibition of human PC-3 cells assessed as growth percentage at 1 uM incubated for 48 hrs by sulforhodamine B assay relative to control; conditions: read-out: Activity
OVCAR-3 [8] = test: Growth inhibition of human OVCAR-3 cells assessed as growth percentage at 1 uM incubated for 48 hrs by sulforhodamine B assay relative to control; conditions: read-out: Activity
SK-MEL-5 = test: Growth inhibition of human SK-MEL-5 cells assessed as growth percentage at 1 uM incubated for 48 hrs by sulforhodamine B assay relative to control; conditions: read-out: Activity
Malme-3M = test: Growth inhibition of human Malme-3M cells assessed as growth percentage at 1 uM incubated for 48 hrs by sulforhodamine B assay relative to control; conditions: read-out: Activity
SF-268 [9] = test: Growth inhibition of human SF-268 cells assessed as growth percentage at 1 uM incubated for 48 hrs by sulforhodamine B assay relative to control; conditions: read-out: Activity
KM12 = test: Growth inhibition of human KM12 cells assessed as growth percentage at 1 uM incubated for 48 hrs by sulforhodamine B assay relative to control; conditions: read-out: Activity
MDA-MB-231 = test: Growth inhibition of human MDA-MB-231/ATCC cells assessed as growth percentage at 0.1 uM incubated for 48 hrs by sulforhodamine B assay relative to control; conditions: read-out: Activity
CAKI-1 = test: Growth inhibition of human CAKI-1 cells assessed as growth percentage at 0.1 uM incubated for 48 hrs by sulforhodamine B assay relative to control; conditions: read-out: Activity
A498 [10] = test: Growth inhibition of human A498 cells assessed as growth percentage at 0.1 uM incubated for 48 hrs by sulforhodamine B assay relative to control; conditions: read-out: Activity
MDA-MB-435 = test: Growth inhibition of human MDA-MB-435 cells assessed as growth percentage at 0.1 uM incubated for 48 hrs by sulforhodamine B assay relative to control; conditions: read-out: Activity
U-251 [11] = test: Growth inhibition of human U-251 cells assessed as growth percentage at 0.1 uM incubated for 48 hrs by sulforhodamine B assay relative to control; conditions: read-out: Activity
SF-268 [12] = test: Growth inhibition of human SF-268 cells assessed as growth percentage at 0.1 uM incubated for 48 hrs by sulforhodamine B assay relative to control; conditions: read-out: Activity
UO-31 [13] = test: Growth inhibition of human UO-31 cells assessed as growth percentage at 0.01 uM incubated for 48 hrs by sulforhodamine B assay relative to control; conditions: read-out: Activity
A498 [14] = test: Growth inhibition of human A498 cells assessed as growth percentage at 0.01 uM incubated for 48 hrs by sulforhodamine B assay relative to control; conditions: read-out: Activity
786-0 [15] = test: Growth inhibition of human 786-0 cells assessed as growth percentage at 0.01 uM incubated for 48 hrs by sulforhodamine B assay relative to control; conditions: read-out: Activity
OVCAR-3 [16] = test: Growth inhibition of human OVCAR-3 cells assessed as growth percentage at 0.01 uM incubated for 48 hrs by sulforhodamine B assay relative to control; conditions: read-out: Activity
SW-620 = test: Growth inhibition of human SW-620 cells assessed as growth percentage at 0.01 uM incubated for 48 hrs by sulforhodamine B assay relative to control; conditions: read-out: Activity
NCI-H460 [17] = test: Growth inhibition of human NCI-H460 cells assessed as growth percentage at 0.01 uM incubated for 48 hrs by sulforhodamine B assay relative to control; conditions: read-out: Activity

Structure (SMILES): CCCCCCCC(=O)Nc1nc2[nH]c(CN3CCN(Cc4cccc(F)c4)CC3)c(CN3CCN(Cc4cccc(F)c4)CC3)c2c(=O)[nH]1
- growth at 10 µM (LOX IMVI): -88.5%
- growth at 10 µM (HCT-116 [1]): -96.7%
- growth at 10 µM (SR): -52.8%
- GI50 (Hs-578T): 1.72 µM
- TGI (Hs-578T): 4.18 µM
- GI50 (UO-31 [2]; 48 h): 3.8 µM and 0.38 µM
- LC50 (concentration killing 50% of cells) (UO-31 [2]; Homo sapiens, UO-31): 4.81 µM
- TGI (UO-31 [2]; Homo sapiens, UO-31, 48 h): 1.7 µM
- GI50 (OVCAR-3 [3]; 48 h): 0.78 µM
- TGI (OVCAR-3 [3]; Homo sapiens): 2.17 µM
- GI50 (OVCAR-3 [3]; Homo sapiens, OVCAR-3, 48 h): 0.781 µM
- CC50 (OVCAR-3 [3]; Homo sapiens): 5.28 µM
- GI50 (U-251 [4]; 48 h): 0.17 µM
- TGI (U-251 [4]; 48 h): 0.33 µM
- CC50 (U-251 [4]; 48 h): 0.61 µM
- GI50 (U-251 [4]; Homo sapiens, U-251, 48 h): 0.172 µM
- TGI (U-251 [4]; Homo sapiens, U-251, 48 h): 0.325 µM
- CC50 (U-251 [4]; Homo sapiens, U-251, 48 h): 0.614 µM
- GI50 (HCC 2998; 48 h): 0.25 µM
- TGI (HCC 2998; 48 h): 0.57 µM
- GI50 (HCC 2998; Homo sapiens, HCC 2998, 48 h): 0.248 µM
- TGI (HCC 2998; Homo sapiens, HCC 2998, 48 h): 0.573 µM
- CC50 (HCC 2998; Homo sapiens, HCC 2998, read-out: LC50 (the source's name)): 2.62 µM
- GI50 (NCI-H460 [5]; 48 h): 0.38 µM
- LC50 (NCI-H460 [5]; Homo sapiens, NCI-H460): 4.31 µM
- TGI (NCI-H460 [5]; Homo sapiens, NCI-H460): 1.3 µM
- GI50 (NCI-H460 [5]; Homo sapiens, NCI-H460, 48 h): 0.383 µM
- GI50 (A549; 48 h): 0.34 µM
- LC50 (A549; Homo sapiens, A549): 4.36 µM
- TGI (A549; Homo sapiens, A549): 1.24 µM
- GI50 (A549; Homo sapiens, A549, 48 h): 0.343 µM
- inhibition of growth at 10 µM (HCT-116 [6]): 95.5%
- GI50 (MCF7): 2.15 µM
- growth at 0.1 µM (MDA-MB-468): 95%
- growth at 100 µM (T47D): -68%
- growth at 100 µM (TK-10): -91%
- growth at 100 µM (786-0 [7]): -95%
- growth at 100 µM (IGROV-1): -70%
- growth at 100 µM (NCI-H23): -53%
- growth at 100 µM (RPMI-8226): 1%
- growth at 100 µM (MOLT-4): -7%
- growth at 1 µM (PC-3): 68%
- growth at 1 µM (OVCAR-3 [8]): 44%
- growth at 1 µM (SK-MEL-5): 84%
- growth at 1 µM (Malme-3M): 40%
- growth at 1 µM (SF-268 [9]): 65%
- growth at 1 µM (KM12): 43%
- growth at 0.1 µM (MDA-MB-231): 108%
- growth at 0.1 µM (CAKI-1): 85%
- growth at 0.1 µM (A498 [10]): 76%
- growth at 0.1 µM (MDA-MB-435): 90%
- growth at 0.1 µM (U-251 [11]): 92%
- growth at 0.1 µM (SF-268 [12]): 95%
- growth at 0.01 µM (UO-31 [13]): 77%
- growth at 0.01 µM (A498 [14]): 66%
- growth at 0.01 µM (786-0 [15]): 98%
- growth at 0.01 µM (OVCAR-3 [16]): 100%
- growth at 0.01 µM (SW-620): 96%
- growth at 0.01 µM (NCI-H460 [17]): 94%

Structure (SMILES): Nc1nc2[nH]c(CN3CCN(c4cc(Cl)cc(Cl)c4)CC3)c(CN3CCN(c4cc(Cl)cc(Cl)c4)CC3)c2c(=O)[nH]1
- growth at 10 µM (LOX IMVI): 26.3%
- growth at 10 µM (HCT-116 [1]): -10.2%
- growth at 10 µM (SR): 12.1%
- GI50 (Hs-578T): 1.78 µM
- TGI (Hs-578T): 4.22 µM
- GI50 (UO-31 [2]; 48 h): 1.17 µM and 11.7 µM
- TGI (UO-31 [2]; 48 h): 31.8 µM and 3.18 µM
- TGI (OVCAR-3 [3]; Homo sapiens): 3.38 µM
- GI50 (OVCAR-3 [3]; Homo sapiens, OVCAR-3, 48 h): 1.81 µM
- CC50 (OVCAR-3 [3]; Homo sapiens): 6.28 µM
- GI50 (U-251 [4]; Homo sapiens, U-251, 48 h): 1.67 µM
- TGI (U-251 [4]; Homo sapiens, U-251, 48 h): 3.14 µM
- CC50 (U-251 [4]; Homo sapiens, U-251, 48 h): 5.9 µM
- GI50 (HCC 2998; Homo sapiens, HCC 2998, 48 h): 1.7 µM
- TGI (HCC 2998; Homo sapiens, HCC 2998, 48 h): 3.16 µM
- TGI (NCI-H460 [5]; Homo sapiens, NCI-H460): 3.94 µM
- GI50 (NCI-H460 [5]; Homo sapiens, NCI-H460, 48 h): 1.96 µM
- TGI (A549; Homo sapiens, A549): 3.73 µM
- GI50 (A549; Homo sapiens, A549, 48 h): 1.82 µM
- inhibition of growth at 10 µM (HCT-116 [6]): 91.7%
- GI50 (MCF7): 4.02 µM
- growth at 0.1 µM (MDA-MB-468): 94%
- growth at 100 µM (T47D): -44%
- growth at 100 µM (TK-10): -69%
- growth at 100 µM (786-0 [7]): -41%
- growth at 100 µM (IGROV-1): -48%
- growth at 100 µM (NCI-H23): -47%
- growth at 100 µM (RPMI-8226): -19%
- growth at 100 µM (MOLT-4): -7%
- growth at 1 µM (PC-3): 86%
- growth at 1 µM (OVCAR-3 [8]): 98%
- growth at 1 µM (SK-MEL-5): 89%
- growth at 1 µM (Malme-3M): 101%
- growth at 1 µM (SF-268 [9]): 94%
- growth at 1 µM (KM12): 99%
- growth at 0.1 µM (MDA-MB-231): 98%
- growth at 0.1 µM (CAKI-1): 90%
- growth at 0.1 µM (A498 [10]): 82%
- growth at 0.1 µM (MDA-MB-435): 97%
- growth at 0.1 µM (U-251 [11]): 97%
- growth at 0.1 µM (SF-268 [12]): 102%
- growth at 0.01 µM (UO-31 [13]): 96%
- growth at 0.01 µM (A498 [14]): 90%
- growth at 0.01 µM (786-0 [15]): 94%
- growth at 0.01 µM (OVCAR-3 [16]): 105%
- growth at 0.01 µM (SW-620): 96%
- growth at 0.01 µM (NCI-H460 [17]): 105%
